pKd: −log10 of the molar value.
Experiments:
Met = target: T1, Met (Homo sapiens, UniProt P08581); assay: LanthaScreen Eu kinase binding assay, Met; conditions: Tracer 236, read-out: cMet kinase binding activity (Kd)
T1 construct: purchased Life Technologies

Mer = target: T2, Mer (Homo sapiens, UniProt Q12866); assay: LanthaScreen Eu kinase binding assay, Mer; conditions: Tracer 236
T2 construct: purchased Life Technologies
T2 sequence (Q12866 21-999): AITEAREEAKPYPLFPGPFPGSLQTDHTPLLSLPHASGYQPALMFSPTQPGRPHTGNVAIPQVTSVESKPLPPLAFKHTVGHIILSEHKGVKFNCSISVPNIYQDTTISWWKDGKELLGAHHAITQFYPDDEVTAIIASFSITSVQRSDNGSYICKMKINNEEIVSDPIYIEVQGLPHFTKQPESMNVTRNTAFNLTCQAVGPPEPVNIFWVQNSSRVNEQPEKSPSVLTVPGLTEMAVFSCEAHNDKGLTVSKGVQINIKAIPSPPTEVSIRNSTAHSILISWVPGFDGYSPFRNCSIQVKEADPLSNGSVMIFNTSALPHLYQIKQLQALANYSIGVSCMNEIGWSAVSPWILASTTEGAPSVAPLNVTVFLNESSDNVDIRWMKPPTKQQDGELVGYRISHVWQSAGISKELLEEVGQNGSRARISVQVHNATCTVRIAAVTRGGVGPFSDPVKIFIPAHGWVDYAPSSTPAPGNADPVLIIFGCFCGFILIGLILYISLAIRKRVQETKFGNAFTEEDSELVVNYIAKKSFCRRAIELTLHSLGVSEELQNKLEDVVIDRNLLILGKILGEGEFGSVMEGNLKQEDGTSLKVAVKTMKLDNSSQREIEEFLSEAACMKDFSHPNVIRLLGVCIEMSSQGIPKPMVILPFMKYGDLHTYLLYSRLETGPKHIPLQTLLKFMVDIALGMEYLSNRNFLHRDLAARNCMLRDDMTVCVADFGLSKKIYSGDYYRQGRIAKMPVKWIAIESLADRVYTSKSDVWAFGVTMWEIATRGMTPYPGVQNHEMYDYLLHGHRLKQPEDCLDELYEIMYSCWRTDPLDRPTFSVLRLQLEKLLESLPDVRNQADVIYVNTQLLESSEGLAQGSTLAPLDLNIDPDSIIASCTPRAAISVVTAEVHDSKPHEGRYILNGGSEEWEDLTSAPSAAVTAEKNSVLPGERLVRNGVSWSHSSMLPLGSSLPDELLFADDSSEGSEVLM

TYRO3 = target: T3, TYRO3 (Homo sapiens, UniProt Q06418); assay: LanthaScreen Eu kinase binding assay, TYRO3; conditions: Tracer 236
T3 construct: purchased Life Technologies
T3 sequence (Q06418 41-890): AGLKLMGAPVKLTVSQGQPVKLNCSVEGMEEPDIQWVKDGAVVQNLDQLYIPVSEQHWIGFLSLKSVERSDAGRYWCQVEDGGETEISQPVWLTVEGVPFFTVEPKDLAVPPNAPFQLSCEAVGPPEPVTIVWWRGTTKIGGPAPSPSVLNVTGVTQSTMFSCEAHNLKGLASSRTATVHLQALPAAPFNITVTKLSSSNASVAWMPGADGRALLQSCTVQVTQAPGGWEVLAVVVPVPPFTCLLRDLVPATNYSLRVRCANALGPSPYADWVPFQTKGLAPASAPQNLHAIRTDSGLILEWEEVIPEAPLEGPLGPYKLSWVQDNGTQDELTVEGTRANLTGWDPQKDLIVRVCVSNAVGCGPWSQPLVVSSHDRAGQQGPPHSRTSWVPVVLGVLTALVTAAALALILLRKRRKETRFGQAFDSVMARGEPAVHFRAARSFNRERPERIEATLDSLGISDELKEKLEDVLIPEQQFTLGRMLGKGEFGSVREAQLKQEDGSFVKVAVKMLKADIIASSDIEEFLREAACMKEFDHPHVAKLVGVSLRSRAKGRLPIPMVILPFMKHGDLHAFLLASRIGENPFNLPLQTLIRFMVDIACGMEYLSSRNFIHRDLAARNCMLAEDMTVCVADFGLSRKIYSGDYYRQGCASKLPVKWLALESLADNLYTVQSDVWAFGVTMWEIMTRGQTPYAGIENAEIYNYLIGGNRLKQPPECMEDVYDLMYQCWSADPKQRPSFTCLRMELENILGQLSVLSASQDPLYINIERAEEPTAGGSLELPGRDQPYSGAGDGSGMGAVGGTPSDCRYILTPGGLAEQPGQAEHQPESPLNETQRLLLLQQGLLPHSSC

T1 sequence (P08581 25-1390): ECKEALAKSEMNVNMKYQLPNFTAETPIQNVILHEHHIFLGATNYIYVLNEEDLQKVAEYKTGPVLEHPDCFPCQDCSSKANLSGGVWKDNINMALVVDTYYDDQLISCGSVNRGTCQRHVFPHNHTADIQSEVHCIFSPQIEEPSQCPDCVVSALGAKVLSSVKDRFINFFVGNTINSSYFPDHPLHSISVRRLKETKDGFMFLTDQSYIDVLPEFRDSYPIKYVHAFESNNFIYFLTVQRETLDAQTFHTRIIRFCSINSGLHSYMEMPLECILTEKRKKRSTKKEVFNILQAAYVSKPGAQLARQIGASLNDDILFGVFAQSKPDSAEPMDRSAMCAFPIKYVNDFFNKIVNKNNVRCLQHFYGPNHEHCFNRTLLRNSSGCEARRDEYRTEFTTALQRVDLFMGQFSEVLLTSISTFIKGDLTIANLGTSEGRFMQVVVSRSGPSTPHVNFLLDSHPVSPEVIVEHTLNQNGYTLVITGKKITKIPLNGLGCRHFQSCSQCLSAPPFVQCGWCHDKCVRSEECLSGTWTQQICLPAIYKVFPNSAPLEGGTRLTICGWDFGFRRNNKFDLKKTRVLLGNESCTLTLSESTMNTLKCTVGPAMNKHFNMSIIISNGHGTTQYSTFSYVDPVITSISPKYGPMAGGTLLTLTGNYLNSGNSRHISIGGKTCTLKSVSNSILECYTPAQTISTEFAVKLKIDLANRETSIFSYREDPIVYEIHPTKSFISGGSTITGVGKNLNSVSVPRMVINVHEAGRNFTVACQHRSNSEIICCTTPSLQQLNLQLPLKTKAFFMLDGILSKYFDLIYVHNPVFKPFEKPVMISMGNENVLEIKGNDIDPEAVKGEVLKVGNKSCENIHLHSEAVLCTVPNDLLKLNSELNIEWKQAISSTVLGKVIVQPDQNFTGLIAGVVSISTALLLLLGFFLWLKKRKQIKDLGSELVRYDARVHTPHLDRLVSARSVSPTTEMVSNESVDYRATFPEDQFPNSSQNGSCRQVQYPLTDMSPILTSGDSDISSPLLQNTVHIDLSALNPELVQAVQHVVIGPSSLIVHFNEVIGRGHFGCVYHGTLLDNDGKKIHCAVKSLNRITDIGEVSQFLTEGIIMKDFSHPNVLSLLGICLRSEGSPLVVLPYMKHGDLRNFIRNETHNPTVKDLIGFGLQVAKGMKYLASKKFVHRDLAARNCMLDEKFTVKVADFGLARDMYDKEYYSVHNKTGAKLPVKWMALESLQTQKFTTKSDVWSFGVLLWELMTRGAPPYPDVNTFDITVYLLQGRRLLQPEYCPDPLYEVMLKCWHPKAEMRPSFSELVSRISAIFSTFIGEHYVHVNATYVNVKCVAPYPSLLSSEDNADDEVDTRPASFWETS

| pKd (Met) | pKd (Mer) | pKd (TYRO3) | Structure (SMILES) |
| --- | --- | --- | --- |
| 6.00 to 7.00 | 6.00 to 7.00 | 6.00 to 7.00 | COc1cc2nccc(Oc3ccc(NC(=O)c4nn(-c5ccc(F)cc5C5CCCC5)cc4OCC4CC4)nc3)c2cc1OC [Compound 270] |
| 6.00 to 7.00 | > 7.00 | 6.00 to 7.00 | COc1cc2nccc(Oc3ccc(NC(=O)c4nn(-c5ccc(F)cc5Oc5ccccc5)cc4OCC4CC4)nc3)c2cc1OC [Compound 272] |
| 6.00 to 7.00 | > 7.00 | 6.00 to 7.00 | COc1cc2nccc(Oc3ccc(NC(=O)c4nn(-c5ccc(F)cc5C(C)=O)cc4OCC4CC4)nc3)c2cc1OC [Compound 273] |
| > 7.00 | > 7.00 | > 7.00 | COc1cc2nccc(Oc3ccc(NC(=O)c4nn(-c5ccc(F)c(C(C)=O)c5)cc4OCC4CC4)nc3)c2cc1OC [Compound 274] |
